# From BindingDB's records for doi:10.7270/Q2RB7351 (Technical University of Gdansk, 1997)
# Target: Glutamine--fructose-6-phosphate aminotransferase [isomerizing] (Candida albicans (strain SC5314 / ATCC MYA-2876), UniProt P53704)
# Assay: Enzyme Assay
# Conditions: pH 6.85
# From the text: Two assays of GlcN-6-P synthase activity were used 1)determination of GlcN-6_P formation by the modified Elson-Morgan procedure and 2) continuous quantitation of glutamate in a coupled assay with glutamate dehydrogenase in the presence of acetylpyridine adenine dinucleotide.
# Chain of Glutamine--fructose-6-phosphate aminotransferase [isomerizing] (P53704 whole entry): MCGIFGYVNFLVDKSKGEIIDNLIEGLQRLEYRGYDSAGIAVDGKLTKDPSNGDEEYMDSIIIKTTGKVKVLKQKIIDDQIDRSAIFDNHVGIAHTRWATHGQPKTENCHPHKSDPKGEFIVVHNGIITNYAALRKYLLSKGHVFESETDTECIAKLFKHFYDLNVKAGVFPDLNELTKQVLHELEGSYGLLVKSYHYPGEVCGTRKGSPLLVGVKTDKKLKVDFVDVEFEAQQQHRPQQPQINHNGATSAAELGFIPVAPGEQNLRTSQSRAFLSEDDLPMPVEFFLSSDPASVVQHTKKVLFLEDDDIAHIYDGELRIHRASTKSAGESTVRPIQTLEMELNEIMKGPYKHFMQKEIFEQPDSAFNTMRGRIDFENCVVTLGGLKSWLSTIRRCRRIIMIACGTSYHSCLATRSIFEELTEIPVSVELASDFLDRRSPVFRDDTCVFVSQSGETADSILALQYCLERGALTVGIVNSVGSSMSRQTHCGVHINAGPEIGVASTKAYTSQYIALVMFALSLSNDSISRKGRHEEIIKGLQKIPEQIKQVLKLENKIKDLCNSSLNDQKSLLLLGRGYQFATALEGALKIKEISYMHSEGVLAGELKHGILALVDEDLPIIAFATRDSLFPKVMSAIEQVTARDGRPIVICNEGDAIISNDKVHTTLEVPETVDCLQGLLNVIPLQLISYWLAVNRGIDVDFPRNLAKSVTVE
Structure (SMILES),IC50,Ki
"COC(=O)C(N)CCP(=O)(O)OC [GlcN-6-P synthase inhibitor, 4 (racemic mixture)]",2.6 mM,1.2 mM
"COC(=O)C(N)CCP(=O)(OC)OC [GlcN-6-P synthase inhibitor, 2 (racemic mixture)]",> 50 mM,–
"COC(=O)C(N)CCP(N)(=O)OC [GlcN-6-P synthase inhibitor, 6 (racemic mixture)]",25 mM,11 mM
"COC(=O)C(N)CCP(=O)(OC)N(C)C [GlcN-6-P synthase inhibitor, 8 (racemic mixture)]",4.4 mM,1.3 mM
"COC(=O)C(N)CNS(C)(=O)=O (racemic) [GlcN-6-P synthase inhibitor, 12 (racemic mixture)]",> 50 mM,–
"CCN(CC)S(=O)(=O)CCC(N)C(=O)OC (racemic) [GlcN-6-P synthase inhibitor, 15 (racemic mixture)]",1.6 mM,0.6 mM
"CCNP(=O)(CCC(N)C(=O)OC)OC [GlcN-6-P synthase inhibitor, 7 (racemic mixture)]",7.8 mM,4.4 mM
"CCN(CC)P(=O)(CCC(N)C(=O)OC)OC [GlcN-6-P synthase inhibitor, 9 (racemic mixture)]",3.6 mM,0.94 mM
"CO[P@@](=O)(O)CC[C@H](N)C(=O)O [GlcN-6-P synthase inhibitor, 5 (racemic mixture)]",2 mM,0.9 mM
"COC(=O)C(N)CCS(C)(=N)=O [GlcN-6-P synthase inhibitor, 13 (racemic mixture)]",2.8 mM,1.5 mM
"COC(=O)C(N)CCS(C)(=O)=O (racemic) [GlcN-6-P synthase inhibitor, 11 (racemic mixture)]",> 50 mM,–
N[C@@H](CCP(=O)(O)O)C(=O)O,26 mM,12 mM
"COP(=O)(CCC(N)C(=O)O)OC [GlcN-6-P synthase inhibitor, 3 (racemic mixture)]",> 50 mM,–
"COC(=O)C(N)CCS(N)(=O)=O (racemic) [GlcN-6-P synthase inhibitor, 14 (racemic mixture)]",5.5 mM,2.8 mM
